Test results reported in US8993565B2, “(6-oxo-1,6-dihydropyrimidin-2-yl)amide derivatives, preparation thereof and pharmaceutical use thereof as AKT(PKB) phosphorylation inhibitors” (Sanofi, priority 2009, dated 2015).
pIC50: −log10 of the molar value.

System: AKT protein phosphorylated on serine 473 (P-AKT-S473)
Assay: Study of pAKT expression in PC3 human prostate carcinoma cells measured by the MSD Multi-spot Biomarker Detection technique (Test B)
Assay type: cell-based
Details: PC-3, inhibition of AKT phosphorylation (P-AKT-S473), MSD sandwich immunoassay, 1 to 2 h incubation, absolute IC50, mean of 2 experiments
Experimental: The inhibitory activity of the molecules on AKT phosphorylation is measured either by western blotting using the technique described below, or by the MSD Multi-spot Biomarker detection technique from Meso Scale Discovery also described below.
Study of pAKT Expression in PC3 Human Prostate Carcinoma Cells Measured by the MSD Multi-Spot Biomarker Detection Technique from Meso Scale Discovery (Test B):
The primary antibody specific for P-AKT-S473 (Kit #K151CAD) is coated on to an electrode in each well of the 96-well plates of the MSD, kit: after the addition of a protein lysate to each well, the signal is visualised by adding a secondary detection antibody labelled with an electrochemoluminescent compound. The procedure followed is that described in the kit.
On day 2, the cells are incubated in the presence or absence of the test products for 1 to 2 h at 37° C. in the presence of 5% of CO2. The molecules, diluted in dimethyl sulphoxide (DMSO Sigma #D2650), are added from a 20-times concentrated stock solution, the final percentage of DMSO being 0.1%. The molecules are tested either at a single concentration of less than or equal to 10 μM, or at increasing concentrations in a range that can extend from less than 1 nM to 10 μM.
After this incubation, the cells are lysed for the preparation of the proteins. […] At this stage, the plates containing the lysates can be stored at −20° C. or at −80° C.
The wells of the 96-well plates of the MSD kit are saturated for 1 h at ambient temperature with the blocking solution of the MSD kit. Four washes are carried out with 150 μl of Tris Wash Buffer of the MSD kit. The lysates previously prepared are transferred into the 96-well multi-spot plates of the MSD kit and incubated for 1 h at ambient temperature, with shaking. Four washes are carried out with 150 μl of Tris Wash Buffer of the MSD kit. 25 μl of the MSD sulfo-tag detection antibody solution are added to the wells and incubated for 1 h at ambient temperature, with shaking. Four washes are carried out with 150 μl of Tris Wash Buffer of the MSD kit. 150 μl of Read Buffer of the MSD kit are added to the wells and the plates are read immediately on the S12400 instrument from Meso Scale Discovery.
The instrument measures a signal for each well. Wells without cells and containing the lysis buffer serve to determine the background noise that will be subtracted from all the measurements (min). The wells containing cells in the absence of product and in the presence of 0.1% DMSO are considered to be the 100% signal (max). The percentage inhibition is calculated for each concentration of test product according to the following formula: (1-((test-min)(max-min)))×100.
2 independent experiments make it possible to calculate the mean of the IC50 values.

pIC50 | SMILES
6.59 | Cn1c(CC(=O)Nc2ccc(F)c(C(F)F)c2)nc(N2CCOCC2)cc1=O [Example 97, N-[3-(difluoromethyl)-4-fluorophenyl]-2-[1-methyl-4-(morpholin-4-yl)-6-oxo-1,6-dihydropyrimidin-2-yl]acetamide]
6.66 | Cn1c(CC(=O)Nc2cc(F)c(F)c(F)c2)nc(N2CCOCC2)cc1=O [Example 98, 2-(1-methyl-4-morpholin-4-yl-6-oxo-1,6-dihydropyrimidin-2-yl)-N-(3,4,5-trifluorophenyl)acetamide]
6.18 | Cn1ccc2c(NC(=O)Cc3nc(N4CCOCC4)cc(=O)[nH]3)cccc21 [Example 99, N-(1-methyl-1H-indol-4-yl)-2-[4-(morpholin-4-yl)-6-oxo-1,6-dihydropyrimidin-2-yl]acetamide]
8.52 | Cc1cccc2c1CCN2C(=O)Cc1nc(N2CCOCC2)cc(=O)[nH]1 [Example 100, 2-[2-(4-methyl-2,3-dihydro-1H-indol-1-yl)-2-oxoethyl]-6-(morpholin-4-yl)pyrimidin-4(3H)-one]
7.89 | CC1CN(C(=O)Cc2nc(N3CCOCC3)cc(=O)[nH]2)c2ccccc21 (stereo not shown) [Example 101, 2-[2-(3-methyl-2,3-dihydro-1H-indol-1-yl)-2-oxoethyl]-6-(morpholin-4-yl)pyrimidin-4(3H)-one]
8.15 | O=C(Cc1nc(N2CCOCC2)cc(=O)[nH]1)N1CCc2cc(F)ccc21 [Example 103, 2-[2-(5-Fluoro-2,3-dihydroindol-1-yl)-2-oxoethyl]-6-morpholin-4-yl-3H-pyrimidin-4-one]
7.82 | O=C(Cc1nc(N2CCOCC2)cc(=O)[nH]1)Nc1cccc2sccc12 [Example 105, N-(1-benzothiophen-4-yl)-2-[4-(morpholin-4-yl)-6-oxo-1,6-dihydropyrimidin-2-yl]acetamide]
7.62 | O=C(Cc1nc(N2CCOCC2)cc(=O)[nH]1)Nc1ccccc1OCCN1CCCCC1 [Example 107, 2-[4-(morpholin-4-yl)-6-oxo-1,6-dihydropyrimidin-2-yl]-N-{2-[2-(piperidin-1-yl)ethoxy]phenyl}acetamide]
7.25 | COCCOc1ccccc1NC(=O)Cc1nc(N2CCOCC2)cc(=O)[nH]1 [Example 108, N-[2-(2-methoxyethoxy)phenyl]-2-[4-(morpholin-4-yl)-6-oxo-1,6-dihydropyrimidin-2-yl]acetamide]
7.37 | Cn1c(CC(=O)N2CCc3c(O)cccc32)nc(N2CCOCC2)cc1=O [Example 109, 2-[2-(4-hydroxy-2,3-dihydro-1H-indol-1-yl)-2-oxoethyl]-3-methyl-6-(morpholin-4-yl)pyrimidin-4(3H)-one]
7.64 | O=C(Cc1nc(N2CCOCC2)cc(=O)[nH]1)Nc1ccccc1OCCN1CCCC1 [Example 112, 2-[4-(morpholin-4-yl)-6-oxo-1,6-dihydropyrimidin-2-yl]l-N-{2-[2-(pyrrolidin-1-yl)ethoxy]phenyl}acetamide]
6.18 | O=C(Cc1nc(N2CCOCC2)cc(=O)[nH]1)Nc1ccccc1OCc1cccnc1 [Example 113, 2-[4-(morpholin-4-yl)-6-oxo-1,6-dihydropyrimidin-2-yl]-N-[2-(pyridin-3-ylmethoxy)phenyl]acetamide]
7.72 | C[C@H]1Cc2ccccc2N1C(=O)Cc1nc(N2CCOCC2)cc(=O)[nH]1 [Example 117, 2-{2-[(2S)-2-methyl-2,3-dihydro-1H-indol-1-yl]-2-oxoethyl}-6-(morpholin-4-yl)pyrimidin-4(3 H)-one]
7.92 | C[C@@H]1Cc2ccccc2N1C(=O)Cc1nc(N2CCOCC2)cc(=O)[nH]1 [Example 118, 2-{2-[(2R)-2-methyl-2,3-dihydro-1H-indol-1-yl]-2-oxoethyl}-6-(morpholin-4-yl)pyrimidin-4(3H)-one]
6.30 | NC(=O)C1Cc2ccccc2N1C(=O)Cc1nc(N2CCOCC2)cc(=O)[nH]1 (stereo not shown) [Example 122, 1-{[4-(morpholin-4-yl)-6-oxo-1,6-dihydropyrimidin-2-yl]acetyl}-2,3-dihydro-1H-indole-2-carboxamide]
7.80 | C[C@@H]1CN(C(=O)Cc2nc(N3CCOCC3)cc(=O)[nH]2)c2ccccc21 [Example 125, 2-{2-[(3S)-3-methyl-2,3-dihydro-1H-indol-1-yl]-2-oxoethyl}-6-(morpholin-4-yl)pyrimidin-4(3 H)-one]

pIC50 | SMILES
7.24 | C[C@H]1CN(C(=O)Cc2nc(N3CCOCC3)cc(=O)[nH]2)c2ccccc21 [Example 126, 2-{2-[(3R)-3-methyl-2,3-di hydro-1H-indol-1-yl]-2-oxoethyl}-6-(morpholin-4-yl)pyrimidin-4(3H)-one]
7.16 | Cn1c(CC(=O)N2CCc3c2ccc(F)c3F)nc(N2CCOCC2)cc1=O [Example 128, 2-[2-(4,5-difluoro-2,3-dihydro-1H-indol-1-yl)-2-oxoethyl]-3-methyl-6-(morpholin-4-yl)pyrimidin-4(3H)-one]
6.00 | O=C(Cc1nc(N2CCOCC2)cc(=O)[nH]1)N1Cc2ccccc2C1 [Example 129, 2-[2-(1,3-dihydro-2H-isoindol-2-yl)-2-oxoethyl]-6-(morpholin-4-yl)pyrimidin-4(3H)-one]
6.76 | O=C(Cc1nc(N2CCOCC2)cc(=O)[nH]1)Nc1ccc(F)cc1OCC1CCNCC1 [Example 133, N-[4-fluoro-2-(piperidin-4-ylmethoxy)phenyl]-2-[4-(morpholin-4-yl)-6-oxo-1,6-dihydropyrimidin-2-yl]acetamide]
6.91 | O=C(Cc1nc(N2CCOCC2)cc(=O)[nH]1)N1CCc2cc(Cl)ccc21 [Example 134, 2-[2-(5-Chloro-2,3-dihydroindol-1-yl)-2-oxoethyl]-6-morpholin-4-yl-3H-pyrimidin-4-one]
9.00 | O=C(Cc1nc(N2CCOCC2)cc(=O)[nH]1)N1CCc2c(Br)cccc21 [Example 135, 2-[2-(4-Bromo-2,3-dihydroindol-1-yl)-2-oxoethyl]-6-morpholin-4-yl-3H-pyrimidin-4-one]
7.17 | CN(C)C[C@@H]1CN(C(=O)Cc2nc(N3CCOCC3)cc(=O)[nH]2)c2ccccc21 [Example 137, 2-(2-{(3R)-3-[(dimethylamino)methyl]-2,3-dihydro-1H-indol-1-yl}-2-oxoethyl)-6-(morpholin-4-yl)pyrimidin-4(3H)-one]
7.46 | COCCOc1cc(F)ccc1NC(=O)Cc1nc(N2CCOCC2)cc(=O)[nH]1 [Example 138, N-[4-fluoro-2-(2-methoxyethoxy)phenyl]-2-[4-(morpholin-4-yl)-6-oxo-1,6-dihydropyrimidin-2-yl]acetamide]
5.52 | O=C(Cc1nc(N2CCOCC2)cc(=O)[nH]1)Nc1cccc2[nH]cnc12 [Example 139, N-(1H-benzimidazol-4-yl)-2-[4-(morpholin-4-yl)-6-oxo-1,6-dihydropyrimidin-2-yl]acetamide]
6.52 | COC(=O)c1cccc(NC(=O)Cc2nc(N3CCOCC3)cc(=O)[nH]2)c1O [Example 140, methyl 2-hydroxy-3-(([4-(morpholin-4-yl)-6-oxo-1,6-dihydropyrimidin-2-yl]acetyl)amino)benzoate]
7.22 | COc1cccc2c1CCN2C(=O)Cc1nc(N2CCOCC2)cc(=O)[nH]1 [Example 141, 2-[2-(4-Methoxy-2,3-dihydroindol-1-yl)-2-oxoethyl]-6-morpholin-4-yl-3H-pyrimidin-4-one]
7.66 | O=C(Cc1nc(N2CCOCC2)cc(=O)[nH]1)Nc1cccc(Br)c1O [Example 142, N-(3-bromo-2-hydroxyphenyl)-2-[4-(morpholin-4-yl)-6-oxo-1,6-dihydropyrimidin-2-yl]acetamide]
6.36 | COC(=O)c1cc(F)ccc1NC(=O)Cc1nc(N2CCOCC2)cc(=O)[nH]1 [Example 144, Methyl 5-fluoro-2-({[4-(morpholin-4-yl)-6-oxo-1,6-dihydropyrimidin-2-yl]acetyl}amino)benzoate]
6.74 | O=C(Cc1nc(N2CCOCC2)cc(=O)[nH]1)N1CCc2ncccc21 [Example 146, 2-[2-(2,3-dihydro-1H-pyrrolo[3,2-b]pyridin-1-yl)-2-oxoethyl]-6-(morpholin-4-yl)pyrimidin-4(3H)-one]
8.40 | O=C(Cc1nc(N2CCOCC2)cc(=O)[nH]1)N1CCc2cc(F)c(F)cc21 [Example 147, 2-[2-(5,6-Difluoro-2,3-dihydroindol-1-yl)-2-oxoethyl]-6-morpholin-4-yl-3H-pyrimidin-4-one]
